How the values were obtained:
Assay in all cases: Radiometric kinase panel
Format in all cases: biochemical
TBK1 = target: T1, TBK1 (Homo sapiens, UniProt Q9UHD2)
T1 construct: either as full-length or enzymatically active fragments; purchased ProQinase GmbH (Reaction Biology)
Summary of the method: (§1)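 Activity was measured radiometrically from [gamma-33P]-ATP incorporation into substrate. The kinases were recombinant human GST- or His-tagged proteins, full-length or active fragments, expressed in Sf9 or E. coli. Compound in 10% DMSO was added before the enzyme/substrate mix, which started the reaction.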

MST2 = target: T2, MST2 (Homo sapiens, UniProt Q13188)
T2 construct: purchased ProQinase GmbH (Reaction Biology)
T2 sequence (Q13188 whole entry): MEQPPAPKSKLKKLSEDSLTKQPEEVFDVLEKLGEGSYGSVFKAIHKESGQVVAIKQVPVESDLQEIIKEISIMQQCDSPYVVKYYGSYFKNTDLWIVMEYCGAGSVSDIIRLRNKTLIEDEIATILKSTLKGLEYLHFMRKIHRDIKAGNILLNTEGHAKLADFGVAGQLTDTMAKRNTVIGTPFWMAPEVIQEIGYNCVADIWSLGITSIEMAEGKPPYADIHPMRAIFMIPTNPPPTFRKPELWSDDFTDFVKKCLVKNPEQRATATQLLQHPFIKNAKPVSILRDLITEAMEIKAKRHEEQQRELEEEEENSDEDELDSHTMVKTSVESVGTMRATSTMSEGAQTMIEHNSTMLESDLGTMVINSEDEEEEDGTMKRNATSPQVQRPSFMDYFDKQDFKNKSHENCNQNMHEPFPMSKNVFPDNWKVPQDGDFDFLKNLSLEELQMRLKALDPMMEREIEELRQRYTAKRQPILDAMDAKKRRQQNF
Summary of the method: as §1

ROS = target: T3, ROS (Homo sapiens, UniProt P08922)
T3 construct: either as full-length or enzymatically active fragments; purchased ProQinase GmbH (Reaction Biology)
Summary of the method: as §1

ERK7 = target: T4, ERK7 (Homo sapiens, UniProt Q8TD08)
T4 construct: either as full-length or enzymatically active fragments; purchased ProQinase GmbH (Reaction Biology)
Summary of the method: as §1

LIMK2 = target: T5, LIMK2 (Homo sapiens, UniProt P53671)
T5 construct: either as full-length or enzymatically active fragments; purchased ProQinase GmbH (Reaction Biology)
Summary of the method: as §1

MKNK1 = target: T6, MKNK1 (Homo sapiens, UniProt Q9BUB5)
T6 construct: purchased ProQinase GmbH (Reaction Biology)
Summary of the method: as §1

CHK2 = target: T7, CHK2 (Homo sapiens, UniProt O96017)
T7 construct: either as full-length or enzymatically active fragments; purchased ProQinase GmbH (Reaction Biology)
T7 sequence (O96017 whole entry, the tested form may be a part): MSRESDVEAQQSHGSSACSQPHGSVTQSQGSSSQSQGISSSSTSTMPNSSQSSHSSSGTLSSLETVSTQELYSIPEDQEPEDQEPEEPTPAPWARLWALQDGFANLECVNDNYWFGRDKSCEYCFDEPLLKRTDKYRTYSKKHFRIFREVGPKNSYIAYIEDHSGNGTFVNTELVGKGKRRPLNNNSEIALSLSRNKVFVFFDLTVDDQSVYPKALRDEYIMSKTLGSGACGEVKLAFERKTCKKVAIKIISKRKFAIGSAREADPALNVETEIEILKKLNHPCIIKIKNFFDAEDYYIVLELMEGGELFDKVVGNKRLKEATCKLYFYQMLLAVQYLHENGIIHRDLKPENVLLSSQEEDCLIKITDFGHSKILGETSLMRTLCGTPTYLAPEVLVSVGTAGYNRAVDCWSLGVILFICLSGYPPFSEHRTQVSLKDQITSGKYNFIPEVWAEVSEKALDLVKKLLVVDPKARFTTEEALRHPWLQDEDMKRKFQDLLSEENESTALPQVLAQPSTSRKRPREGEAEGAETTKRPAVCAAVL
Summary of the method: as §1

JNK1 = target: T8, JNK1 (Homo sapiens, UniProt P45983)
T8 construct: either as full-length or enzymatically active fragments; purchased ProQinase GmbH (Reaction Biology)
Summary of the method: as §1

KIT = target: T9, KIT (Homo sapiens, UniProt P10721)
T9 construct: either as full-length or enzymatically active fragments; purchased ProQinase GmbH (Reaction Biology)
Summary of the method: as §1

EEF2K = target: T10, EEF2K (Homo sapiens, UniProt O00418)
T10 construct: either as full-length or enzymatically active fragments; purchased ProQinase GmbH (Reaction Biology)
Summary of the method: as §1

PYK2 = target: T11, PYK2 (Homo sapiens, UniProt Q14289)
T11 construct: either as full-length or enzymatically active fragments; purchased ProQinase GmbH (Reaction Biology)
T11 sequence (Q14289 whole entry, the tested form may be a part): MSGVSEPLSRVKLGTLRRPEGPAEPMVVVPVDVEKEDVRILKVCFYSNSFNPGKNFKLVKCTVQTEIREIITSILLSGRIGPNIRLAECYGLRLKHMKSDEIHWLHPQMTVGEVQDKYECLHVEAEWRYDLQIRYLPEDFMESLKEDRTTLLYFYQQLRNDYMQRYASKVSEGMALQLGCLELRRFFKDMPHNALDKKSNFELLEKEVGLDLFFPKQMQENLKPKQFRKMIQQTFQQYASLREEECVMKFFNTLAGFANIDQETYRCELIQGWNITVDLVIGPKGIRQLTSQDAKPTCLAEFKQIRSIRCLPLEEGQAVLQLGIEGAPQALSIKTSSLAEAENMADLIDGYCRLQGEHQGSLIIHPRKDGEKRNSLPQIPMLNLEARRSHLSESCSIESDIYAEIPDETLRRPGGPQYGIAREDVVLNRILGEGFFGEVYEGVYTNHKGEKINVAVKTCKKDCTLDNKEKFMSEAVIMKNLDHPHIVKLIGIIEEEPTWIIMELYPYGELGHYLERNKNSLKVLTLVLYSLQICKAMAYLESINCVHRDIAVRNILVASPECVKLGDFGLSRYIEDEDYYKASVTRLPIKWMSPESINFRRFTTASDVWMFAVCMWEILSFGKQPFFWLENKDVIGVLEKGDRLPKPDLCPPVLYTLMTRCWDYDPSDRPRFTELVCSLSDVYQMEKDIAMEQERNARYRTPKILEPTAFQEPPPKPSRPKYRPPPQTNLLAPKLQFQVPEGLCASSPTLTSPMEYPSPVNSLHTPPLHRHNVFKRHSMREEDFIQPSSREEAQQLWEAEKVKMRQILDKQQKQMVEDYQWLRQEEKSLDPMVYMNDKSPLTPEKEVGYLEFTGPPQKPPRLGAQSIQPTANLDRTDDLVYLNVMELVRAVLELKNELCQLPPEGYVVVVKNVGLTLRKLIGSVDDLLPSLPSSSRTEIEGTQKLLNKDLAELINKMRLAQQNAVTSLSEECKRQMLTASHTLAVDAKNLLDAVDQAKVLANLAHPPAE
Summary of the method: as §1

BUB1B = target: T12, BUB1B (Homo sapiens, UniProt O60566)
T12 construct: either as full-length or enzymatically active fragments; purchased ProQinase GmbH (Reaction Biology); host or cells: Sf9 insect cells or E. coli
Summary of the method: as §1

CDK5/p25NCK = target: T13, CDK5/p25NCK (Homo sapiens, UniProt Q00535)
T13 construct: either as full-length or enzymatically active fragments; purchased ProQinase GmbH (Reaction Biology)
Summary of the method: as §1

PKCmu = target: T14, PKCmu (Homo sapiens, UniProt Q15139)
T14 construct: either as full-length or enzymatically active fragments; purchased ProQinase GmbH (Reaction Biology)
T14 sequence (Q15139 whole entry, the tested form may be a part): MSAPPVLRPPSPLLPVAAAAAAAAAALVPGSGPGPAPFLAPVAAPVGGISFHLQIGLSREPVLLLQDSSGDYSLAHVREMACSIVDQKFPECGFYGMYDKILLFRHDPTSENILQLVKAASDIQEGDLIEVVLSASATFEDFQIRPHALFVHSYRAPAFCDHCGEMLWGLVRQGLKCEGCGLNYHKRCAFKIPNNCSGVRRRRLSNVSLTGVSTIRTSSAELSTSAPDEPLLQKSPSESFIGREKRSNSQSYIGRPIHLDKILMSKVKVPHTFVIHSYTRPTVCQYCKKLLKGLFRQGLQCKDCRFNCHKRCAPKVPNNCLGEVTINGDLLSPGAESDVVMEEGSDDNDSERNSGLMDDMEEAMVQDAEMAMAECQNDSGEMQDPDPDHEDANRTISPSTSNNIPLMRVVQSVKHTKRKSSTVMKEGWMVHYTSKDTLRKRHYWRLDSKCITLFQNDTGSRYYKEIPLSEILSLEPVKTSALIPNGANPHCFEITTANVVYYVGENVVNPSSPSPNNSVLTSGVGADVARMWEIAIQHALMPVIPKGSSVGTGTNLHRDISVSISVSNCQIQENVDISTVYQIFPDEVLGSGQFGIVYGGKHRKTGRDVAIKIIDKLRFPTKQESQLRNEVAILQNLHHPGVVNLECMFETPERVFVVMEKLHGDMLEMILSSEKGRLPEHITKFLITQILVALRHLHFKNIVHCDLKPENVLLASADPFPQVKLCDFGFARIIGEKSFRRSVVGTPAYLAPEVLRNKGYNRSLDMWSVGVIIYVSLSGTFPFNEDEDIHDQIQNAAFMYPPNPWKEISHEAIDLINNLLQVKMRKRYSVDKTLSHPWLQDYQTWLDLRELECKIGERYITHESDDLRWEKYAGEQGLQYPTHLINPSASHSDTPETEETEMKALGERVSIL
Summary of the method: as §1

MEK5 = target: T15, MEK5 (Homo sapiens, UniProt Q13163)
T15 construct: either as full-length or enzymatically active fragments; purchased ProQinase GmbH (Reaction Biology)
Summary of the method: as §1

BRK = target: T16, BRK (Homo sapiens, UniProt Q13882)
T16 construct: purchased ProQinase GmbH (Reaction Biology); host or cells: Sf9 insect cells or E. coli (not specified per kinase)
Summary of the method: as §1

PAK4 = target: T17, PAK4 (Homo sapiens, UniProt O96013)
T17 construct: either as full-length or enzymatically active fragments; purchased ProQinase GmbH (Reaction Biology)
Summary of the method: as §1

DMPK = target: T18, DMPK (Homo sapiens, UniProt Q09013)
T18 construct: either as full-length or enzymatically active fragments; purchased ProQinase GmbH (Reaction Biology); host or cells: Sf9 insect cells or E. coli
Summary of the method: as §1

TNK1 = target: T19, TNK1 (Homo sapiens, UniProt Q13470)
T19 construct: either as full-length or enzymatically active fragments; purchased ProQinase GmbH (Reaction Biology)
T19 sequence (Q13470 whole entry, the tested form may be a part): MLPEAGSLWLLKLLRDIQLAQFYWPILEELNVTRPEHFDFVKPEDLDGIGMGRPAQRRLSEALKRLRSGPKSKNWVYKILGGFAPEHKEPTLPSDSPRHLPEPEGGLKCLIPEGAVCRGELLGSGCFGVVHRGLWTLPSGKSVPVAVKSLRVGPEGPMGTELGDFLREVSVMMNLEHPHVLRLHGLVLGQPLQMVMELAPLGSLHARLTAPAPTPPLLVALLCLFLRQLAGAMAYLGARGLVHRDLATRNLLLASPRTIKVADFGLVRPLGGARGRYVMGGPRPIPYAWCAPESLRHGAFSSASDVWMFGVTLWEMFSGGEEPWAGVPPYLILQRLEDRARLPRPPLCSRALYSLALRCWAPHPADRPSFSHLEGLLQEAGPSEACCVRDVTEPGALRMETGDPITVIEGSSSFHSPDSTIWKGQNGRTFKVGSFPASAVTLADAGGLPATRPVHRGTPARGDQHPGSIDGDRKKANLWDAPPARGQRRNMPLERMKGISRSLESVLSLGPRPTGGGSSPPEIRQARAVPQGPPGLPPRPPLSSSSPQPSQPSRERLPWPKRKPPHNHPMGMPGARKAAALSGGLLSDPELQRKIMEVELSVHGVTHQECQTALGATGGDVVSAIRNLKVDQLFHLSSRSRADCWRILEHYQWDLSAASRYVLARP
Summary of the method: as §1

CDK16/CycY = target: T20, CDK16/CycY (Homo sapiens, UniProt Q00536)
T20 construct: either as full-length or enzymatically active fragments; purchased ProQinase GmbH (Reaction Biology)
Summary of the method: as §1

ROCK1 = target: T21, ROCK1 (Homo sapiens, UniProt Q13464)
T21 construct: either as full-length or enzymatically active fragments; purchased ProQinase GmbH (Reaction Biology)
Summary of the method: as §1

RPS6KA3 = target: T22, RPS6KA3 (Homo sapiens, UniProt P51812)
T22 construct: purchased ProQinase GmbH (Reaction Biology); host or cells: Sf9 insect cells or E. coli (not specified per kinase)
Summary of the method: as §1

CDK2/CycD1 = target: T23, CDK2/CycD1 (Homo sapiens, UniProt P24941)
T23 construct: either as full-length or enzymatically active fragments; purchased ProQinase GmbH (Reaction Biology)
Summary of the method: as §1

CDK12/CycK = target: T24, CDK12/CycK (Homo sapiens, UniProt Q9NYV4)
T24 construct: either as full-length or enzymatically active fragments; purchased ProQinase GmbH (Reaction Biology)
Summary of the method: as §1

DAPK2 = target: T25, DAPK2 (Homo sapiens, UniProt Q9UIK4)
T25 construct: either as full-length or enzymatically active fragments; purchased ProQinase GmbH (Reaction Biology); host or cells: Sf9 insect cells or E. coli (not specified per kinase)
T25 sequence (Q9UIK4 whole entry, the tested form may be a part): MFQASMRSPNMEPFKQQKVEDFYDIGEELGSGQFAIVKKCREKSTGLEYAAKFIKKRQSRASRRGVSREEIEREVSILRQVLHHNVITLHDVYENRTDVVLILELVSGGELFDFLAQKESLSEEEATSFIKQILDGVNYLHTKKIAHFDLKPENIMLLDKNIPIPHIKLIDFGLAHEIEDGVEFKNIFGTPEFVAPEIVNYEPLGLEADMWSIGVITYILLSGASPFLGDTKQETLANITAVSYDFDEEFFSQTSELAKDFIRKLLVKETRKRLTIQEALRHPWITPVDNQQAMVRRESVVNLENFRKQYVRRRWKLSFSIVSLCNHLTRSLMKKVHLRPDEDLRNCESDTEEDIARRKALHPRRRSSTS
Summary of the method: as §1

PKCnu = target: T26, PKCnu (Homo sapiens, UniProt O94806)
T26 construct: either as full-length or enzymatically active fragments; purchased ProQinase GmbH (Reaction Biology)
Summary of the method: as §1

NEK6 = target: T27, NEK6 (Homo sapiens, UniProt Q9HC98)
T27 construct: either as full-length or enzymatically active fragments; purchased ProQinase GmbH (Reaction Biology)
T27 sequence (Q9HC98 whole entry, the tested form may be a part): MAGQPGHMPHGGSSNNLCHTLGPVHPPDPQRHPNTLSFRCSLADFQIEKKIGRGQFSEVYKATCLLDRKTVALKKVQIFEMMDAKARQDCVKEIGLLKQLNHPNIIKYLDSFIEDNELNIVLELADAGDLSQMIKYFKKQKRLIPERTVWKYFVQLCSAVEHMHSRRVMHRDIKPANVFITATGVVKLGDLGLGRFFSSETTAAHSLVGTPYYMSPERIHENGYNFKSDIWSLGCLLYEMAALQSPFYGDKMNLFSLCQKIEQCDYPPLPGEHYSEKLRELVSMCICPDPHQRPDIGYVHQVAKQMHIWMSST
Summary of the method: as §1

IRAK4 = target: T28, IRAK4 (Homo sapiens, UniProt Q9NWZ3)
T28 construct: purchased ProQinase GmbH (Reaction Biology)
Summary of the method: as §1

CLK1 = target: T29, CLK1 (Homo sapiens, UniProt P49759)
T29 construct: either as full-length or enzymatically active fragments; purchased ProQinase GmbH (Reaction Biology)
Summary of the method: as §1

CDK4/CycD1 = target: T30, CDK4/CycD1 (Homo sapiens, UniProt P11802)
T30 construct: either as full-length or enzymatically active fragments; purchased ProQinase GmbH (Reaction Biology); host or cells: Sf9 insect cells or E. coli (not specified per kinase)
Summary of the method: as §1

T1 sequence (Q9UHD2 whole entry, the tested form may be a part): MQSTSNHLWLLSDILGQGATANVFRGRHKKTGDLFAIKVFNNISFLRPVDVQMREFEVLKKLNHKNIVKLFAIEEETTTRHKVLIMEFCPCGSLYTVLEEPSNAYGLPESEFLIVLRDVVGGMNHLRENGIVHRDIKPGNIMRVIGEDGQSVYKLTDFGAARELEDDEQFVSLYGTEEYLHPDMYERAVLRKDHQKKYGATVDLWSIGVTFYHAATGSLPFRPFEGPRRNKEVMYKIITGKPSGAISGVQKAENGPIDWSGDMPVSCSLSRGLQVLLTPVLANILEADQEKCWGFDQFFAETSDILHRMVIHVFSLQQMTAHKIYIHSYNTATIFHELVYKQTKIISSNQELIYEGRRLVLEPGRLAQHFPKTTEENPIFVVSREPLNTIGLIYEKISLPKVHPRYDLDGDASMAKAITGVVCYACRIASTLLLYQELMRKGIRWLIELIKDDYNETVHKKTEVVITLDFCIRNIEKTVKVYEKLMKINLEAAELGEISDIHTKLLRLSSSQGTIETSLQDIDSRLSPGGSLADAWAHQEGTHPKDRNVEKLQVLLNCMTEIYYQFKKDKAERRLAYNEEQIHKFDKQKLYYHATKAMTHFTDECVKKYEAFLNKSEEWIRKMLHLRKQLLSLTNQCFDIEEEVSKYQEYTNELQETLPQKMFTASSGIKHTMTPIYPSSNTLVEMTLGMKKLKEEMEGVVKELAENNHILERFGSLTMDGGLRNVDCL

Compound `C=CC(=O)Nc1ccc(C(=O)N2CC[C@@H](Nc3ncc(C#N)cn3)C2)cc1` [Compound 4, (R)-N-(4-(3-((5-cyanopyrimidin-2-yl)amino)pyrrolidine-1-carbonyl)phenyl)acrylamide] has an inhibition at 1 µM (TBK1) of -4%, an inhibition at 1 µM (MST2) of 0% and an inhibition at 1 µM (ROS) of 2%. For the same compound, the inhibition at 1 µM (ERK7) was 17%, the inhibition at 1 µM (LIMK2) was -3% and the inhibition at 1 µM (MKNK1) was -2%. The inhibition at 1 µM (CHK2) was 5%, the inhibition at 1 µM (JNK1) was 3% and the inhibition at 1 µM (KIT) was -4%. It also gave an inhibition at 1 µM (EEF2K) of 15%, an inhibition at 1 µM (PYK2) of 4% and an inhibition at 1 µM (BUB1B) of 13%. The inhibition at 1 µM (CDK5/p25NCK) was 3%, the inhibition at 1 µM (PKCmu) was 3% and the inhibition at 1 µM (MEK5) was 23%. The inhibition at 1 µM (BRK) was 1%, the inhibition at 1 µM (PAK4) was -3% and the inhibition at 1 µM (DMPK) was 11%. It also gave an inhibition at 1 µM (TNK1) of 2%, an inhibition at 1 µM (CDK16/CycY) of 17% and an inhibition at 1 µM (ROCK1) of 15%. For the same compound, the inhibition at 1 µM (RPS6KA3) was 1%, the inhibition at 1 µM (CDK2/CycD1) was 18% and the inhibition at 1 µM (CDK12/CycK) was 90%. It also gave an inhibition at 1 µM (DAPK2) of 9%, an inhibition at 1 µM (PKCnu) of 4% and an inhibition at 1 µM (NEK6) of 4%. It also gave an inhibition at 1 µM (IRAK4) of 0%, an inhibition at 1 µM (CLK1) of -3% and an inhibition at 1 µM (CDK4/CycD1) of 9%.

From patent publication US20230074545A1, “TREATMENT OF CANCER WITH CDK12/13 INHIBITORS” (Kinnate Biopharma Inc., priority 2019, published 2023)
